Here are results for 31 compounds from patent publication US10154990B2, “Medicaments for the treatment or prevention of fibrotic diseases” (Boehringer Ingelheim International GmbH, priority 2004, dated 2018).

Structures can show the parent of a compound that is named as a salt.

Regarding `COC(=O)c1ccc2c(c1)NC(=O)/C2=C(\Nc1ccc(CCN(C)C)cc1)c1cccc(CCC(=O)O)c1` [(ax), 3-Z-[1-(4-(2-dimethylamino-ethyl)-anilino)-1-(3-(2-carboxy-ethyl)-phenyl)-methylene]-6-methoxycarbonyl-2-indolinone], the melting point (in general, the temperature, or range, at which the solid turns liquid) is 248 to 255 °C. The value for `COC(=O)c1ccc2c(c1)NC(=O)/C2=C(\Nc1ccc(NC(=O)CN2CCN(C)CC2)c(C)c1C)c1ccccc1` [(ae), 3-Z-[1-(2,3-dimethyl-4-(N-((4-methyl-piperazin-1-yl)-methylcarbonyl)-amino)-anilino)-1-phenyl-methylene]-6-methoxycarbonyl-2-indolinone] was 254 to 257 °C; that for `COC(=O)c1ccc2c(c1)NC(=O)/C2=C(\Nc1ccc(-c2nccn2C)cc1)c1cccc(CCC(=O)O)c1` [(ay), 3-Z-[1-(4-(1-methyl-imidazol-2-yl)-anilino)-1-(3-(2-carboxy-ethyl)-phenyl)-methylene]-6-methoxycarbonyl-2-indolinone] was 184 to 190 °C; that for `CCNC(=O)c1ccc2c(c1)NC(=O)/C2=C\Nc1ccc(CN2CCCCC2)cc1` [(ct), 3-Z-[1-(4-(piperidin-1-yl-methyl)-anilino)-methylene]-6-ethylcarbamoyl-2-indolinone] was 245 to 248 °C. Next, `COC(=O)c1ccc2c(c1)NC(=O)/C2=C(\Nc1ccc(CN(C)C)cc1)c1ccc(CCC(=O)O)cc1` [(az), 3-Z-[1-(4-dimethylaminomethyl-anilino)-1-(4-(2-carboxy-ethyl)-phenyl)-methylene]-6-methoxycarbonyl-2-indolinone]: 190 to 195 °C. For the compound `NC(CCO)(CCO)c1ccc(N/C(=C2\C(=O)Nc3cc(C(=O)O)ccc32)c2ccccc2)cc1` (as salt: Na) [(aq), 3-Z-[1-(4-(di-(2-hydroxy-ethyl)-amino-methyl)-anilino)-1-phenyl-methylene]-6-carboxy-2-indolinone], the melting point fell in the range of 256 to 257 °C. The value for `COC(=O)c1ccc2c(c1)NC(=O)/C2=C\Nc1ccc(N(C)C(=O)CN(C)C)cc1` [(co), 3-Z-[1-(4-(N-dimethylaminomethylcarbonyl-N-methyl-amino)-anilino)-methylene]-6-methoxycarbonyl-2-indolinone] was 250 to 255 °C; that for `CCNC(=O)c1ccc2c(c1)NC(=O)/C2=C(\Nc1ccc(C(=O)N2CCN(CC)CC2)cc1)c1ccccc1` [(ck), 3-Z-[1-(4-((4-ethyl-piperazin-1-yl)-carbonyl)-anilino)-1-phenyl-methylene]-6-ethylcarbamoyl-2-indolinone] was 127 to 130 °C. Next, `CCNC(=O)c1ccc2c(c1)NC(=O)/C2=C(\Nc1ccc(N(CCN(C)C)C(C)=O)cc1)c1ccccc1` [(ca), 3-Z-[1-(4-(N-(2-dimethylamino-ethyl)-N-acetyl-amino)-anilino)-1-phenyl-methylene]-6-ethylcarbamoyl-2-indolinone]: 266 to 270 °C; `CCNC(=O)c1ccc2c(c1)NC(=O)/C2=C(\Nc1ccc(N(CCCN(C)C)C(C)=O)cc1)c1ccccc1` [(cb), 3-Z-[1-(4-(N-(3-dimethylamino-propyl)-N-acetyl-amino)-anilino)-1-phenyl-methylene]-6-ethylcarbamoyl-2-indolinone]: 198 to 202 °C; `CN(C(=O)CN1CCOCC1)c1ccc(N/C(=C2\C(=O)Nc3cc(C(=O)O)ccc32)c2ccccc2)cc1` [(as), 3-Z-[1-(4-(N-(morpholin-4-yl-methylcarbonyl)-N-methyl-amino)-anilino)-1-phenyl-methylene]-6-carboxy-2-indolinone]: 237 to 238 °C.

Take `CCNC(=O)c1ccc2c(c1)NC(=O)/C2=C(\Nc1ccc(N(C)C(=O)CN2CCN(C)CC2)cc1)c1ccccc1` [(bv), 3-Z-[1-(4-(N-((4-methyl-piperazin-1-yl)-methylcarbonyl)-N-methyl-amino)-anilino)-1-phenyl-methylene]-6-ethylcarbamoyl-2-indolinone]: the melting point lay within 279 to 283 °C. The value for `CCNC(=O)c1ccc2c(c1)NC(=O)/C2=C(\Nc1ccc(C(=O)N2CCN(C)CC2)cc1)c1ccccc1` [(cf), 3-Z-[1-(4-((4-methyl-piperazin-1-yl)-carbonyl)-anilino)-1-phenyl-methylene]-6-ethylcarbamoyl-2-indolinone] was 288 to 292 °C.

Compound `CCNC(=O)c1ccc2c(c1)NC(=O)/C2=C(\Nc1ccc(C(=O)N2C[C@@H](C)N[C@@H](C)C2)cc1)c1ccccc1` [(cm), 3-Z-[1-(4-((cis-3,5-dimethyl-piperazin-1-yl)-carbonyl)-anilino)-1-phenyl-methylene]-6-ethylcarbamoyl-2-indolinone] had a melting point of 217 to 220 °C. The compound `CCNC(=O)c1ccc2c(c1)NC(=O)/C2=C(\Nc1ccc(OCCN(C)C)cc1)c1ccccc1` [(bu), 3-Z-[1-(4-(2-dimethylamino-ethoxy)-anilino)-1-phenyl-methylene]-6-ethylcarbamoyl-2-indolinone] came in with a melting point of 308 to 311 °C. The value for `CN(C)CCN(C)CC(=O)N(C)c1ccc(N/C(=C2\C(=O)Nc3cc(C(=O)O)ccc32)c2ccccc2)cc1` [(at), 3-Z-[1-(4-(N—(N-(2-dimethylamino-ethyl)-N-methyl-aminomethylcarbonyl)-N-methyl-amino)-anilino)-1-phenyl-methylene]-6-carboxy-2-indolinone] was 238 to 240 °C; that for `COC(=O)c1ccc2c(c1)NC(=O)/C2=C(\Nc1ccc(N(C)C(=O)CN)cc1)c1ccccc1` [(x), 3-Z-[1-(4-(N-aminomethylcarbonyl-N-methyl-amino)-anilino)-1-phenyl-methylene]-6-methoxycarbonyl-2-indolinone] was 221 °C. The value for `CCN(CC)C(=O)c1ccc2c(c1)NC(=O)/C2=C(\Nc1ccc(N(C)C(=O)CN2CCN(C)CC2)cc1)c1ccccc1` [(ci), 3-Z-[1-(4-(N-((4-methyl-piperazin-1-yl)-methylcarbonyl)-N-methyl-amino)-anilino)-1-phenyl-methylene]-6-diethylcarbamoyl-2-indolinone] was 195 to 198 °C; that for `O=C1Nc2cc(C(=O)O)ccc2/C1=C(/Nc1ccc(CN2CCOCC2)cc1)c1ccccc1` [(ao), 3-Z-[1-(4-(morpholin-4-yl-methyl)-anilino)-1-phenyl-methylene]-6-carboxy-2-indolinone] was 335 °C.

`COC(=O)c1ccc2c(c1)NC(=O)/C2=C\Nc1ccc(CN(C)C)cc1` [(cp), 3-Z-[1-(4-dimethylaminomethyl-anilino)-methylene]-6-methoxycarbonyl-2-indolinone] yielded a melting point of 234 to 238 °C. Turning to `COC(=O)c1ccc2c(c1)NC(=O)/C2=C(\Nc1ccc(N(C)C(=O)NCCCN(C)C)cc1)c1ccccc1` [(ai), 3-Z-[1-(4-(N-((3-dimethylamino-propyl)-aminocarbonyl)-N-methyl-amino)-anilino)-1-phenyl-methylene]-6-methoxycarbonyl-2-indolinone], the melting point was 166 to 170 °C.

For the compound `CCNC(=O)c1ccc2c(c1)NC(=O)/C2=C(\Nc1ccc(CN(C)C)cc1)c1ccccc1` [(bz), 3-Z-[1-(4-dimethylaminomethyl-anilino)-1-phenyl-methylene]-6-ethylcarbamoyl-2-indolinone], the melting point lay within 341 to 344 °C. Compound `COC(=O)c1ccc2c(c1)NC(=O)/C2=C(\Nc1ccc(N(C)C(=O)CN(C)C)c(OC)c1)c1ccccc1` [(w), 3-Z-[1-(3-methoxy-4-(N-dimethylaminomethylcarbonyl-N-methyl-amino)-anilino)-1-phenyl-methylene]-6-methoxycarbonyl-2-indolinone] yielded a melting point of 160 to 163 °C. Next, `CCNC(=O)c1ccc2c(c1)NC(=O)/C2=C(\Nc1ccc(N(CCCN(C)C)S(C)(=O)=O)cc1)c1ccccc1` [(cn), 3-Z-[1-(4-(N-(3-dimethylamino-propyl)-N-methylsulphonyl-amino)-anilino)-1-phenyl-methylene]-6-ethylcarbamoyl-2-indolinone]: 171 to 175 °C; `COC(=O)c1ccc2c(c1)NC(=O)/C2=C(\Nc1ccc(N(C)C(=O)CC2CCN(C)CC2)cc1)c1ccccc1` [(ad), 3-Z-[1-(4-(N-((1-methyl-piperidin-4-yl)-methylcarbonyl)-N-methyl-amino)-anilino)-1-phenyl-methylene]-6-methoxycarbonyl-2-indolinone]: 190 to 193 °C. Next, `COC(=O)c1ccc2c(c1)NC(=O)/C2=C(\Nc1ccc(N(C)C(=O)C(N)(CCO)CCO)cc1)c1ccccc1` [(z), 3-Z-[1-(4-(N-(di-(2-hydroxy-ethyl)-amino-methylcarbonyl)-N-methyl-amino)-anilino)-1-phenyl-methylene]-6-methoxycarbonyl-2-indolinone]: 199 to 202 °C; `CNCc1ccc(N/C(=C2\C(=O)Nc3cc(C(=O)O)ccc32)c2ccccc2)cc1` [(an), 3-Z-[1-(4-methylaminomethyl-anilino)-1-phenyl-methylene]-6-carboxy-2-indolinone]: 287 °C. For `CN(C)CCN(c1ccc(N/C(=C2\C(=O)Nc3cc(C(=O)O)ccc32)c2ccccc2)cc1)S(C)(=O)=O` [(ap), 3-Z-[1-(4-(N-(2-dimethylamino-ethyl)-N-methylsulphonyl-amino)-anilino)-1-phenyl-methylene]-6-carboxy-2-indolinone], the melting point amounted to 280 °C. `CCNC(=O)c1ccc2c(c1)NC(=O)/C2=C(\Nc1ccc(N(CCN(C)C)S(C)(=O)=O)cc1)c1ccccc1` [(bw), 3-Z-[1-(4-(N-(2-dimethylamino-ethyl)-N-methylsulphonyl-amino)-anilino)-1-phenyl-methylene]-6-ethylcarbamoyl-2-indolinone] came in with a melting point of 213 to 217 °C.

In the case of `CCNC(=O)c1ccc2c(c1)NC(=O)/C2=C(\Nc1ccc(N(C)C(=O)CN(C)C)cc1)c1ccccc1` [(by), 3-Z-[1-(4-(N-dimethylaminomethylcarbonyl-N-methyl-amino)-anilino)-1-phenyl-methylene]-6-ethylcarbamoyl-2-indolinone], the melting point was 130 to 134 °C. The value for `CCNC(=O)c1ccc2c(c1)NC(=O)/C2=C\Nc1ccc(N(CCCN(C)C)C(C)=O)cc1` [(cu), 3-Z-[1-(4-(N-(3-dimethylamino-propyl)-N-acetyl-amino)-anilino)-methylene]-6-ethylcarbamoyl-2-indolinone] was 130 °C.
